Laboratory results taken from ChEMBL document CHEMBL5346906, “Discovery of novel tranylcypromine-based derivatives as LSD1 inhibitors for gastric cancer treatment” (Eur J Med Chem, 2023).
pIC50: −log10 of the molar value. Activity calls are given as the source filed them. The rule behind the calls is not given here.

Legend:
MGC-803 [1] = assay: Induction of mitochondrial membrane potential depolarization in human MGC-803 assessed as necrotic cells measured at 8 micromol/L for 20 mins by JC-1 staining based flow cytometric analysis (reference value: 0.00%); type: functional; conditions: dose 8 µmol/L, at 8 µM
MGC-803 [2] = assay: Induction of cell differentiation in human MGC-803 cells assessed as decrease in nucleoplasmic ratio of cells incubated for 6 days measured by Giemsa staining method; type: functional, cell-based; conditions: dose 2-4 µmol/L, time 6.0 day
MGC-803 [3] = assay: Induction of apoptosis in human MGC-803 cells assessed as viable cells at 16 micromol/L for 48 hrs by annexinV-FITC/PI staining based flow cytometric analysis (reference value: 95.54%); type: functional; conditions: MGC-803, 48 h, dose 16 µmol/L, read-out: Activity
[4] = molecular target: T1, Lysine-specific histone demethylase 1A (Homo sapiens, UniProt O60341); assay: Inhibition of LSD1 in human MGC-803 cells assessed as increase in mono methylation of H3K9; type: cell-based; conditions: dose 0-24 µmol/L
MGC-803 [5] = assay: Induction of apoptosis in human MGC-803 cells assessed as viable cells at 24 micromol/L for 48 hrs by annexinV-FITC/PI staining based flow cytometric analysis (reference value: 95.54%); type: functional; conditions: MGC-803, 48 h, dose 24 µmol/L, read-out: Activity
MGC-803 [6] = assay: Induction of apoptosis in human MGC-803 cells assessed as decrease in anti-apoptotic Bcl-2 expression at 8 to 24 micromol/L; type: functional, cell-based; conditions: dose 8-24 µmol/L
MGC-803 [7] = assay: Inhibition of cell migration in human MGC-803 cells assessed as scratch width decrease treated at 2 to 6 micromol/L for 48 hrs measured by transwell assay based crystal violet staining analysis; type: functional; conditions: dose 2-6 µmol/L
MGC-803 [8] = assay: Induction of mitochondrial membrane potential depolarization in human MGC-803 assessed as necrotic cells measured at 16 micromol/L for 20 mins by JC-1 staining based flow cytometric analysis (reference value: 0.00%); type: functional; conditions: dose 16 µmol/L, at 16 µM
MGC-803 [9] = assay: Antiproliferative activity against human MGC-803 cells assessed as reduction in stemness of cells by measuring tumor ball diameter at 0 to 8 uM after 48 hrs measured after 10 days using 3D-spheroid assay; type: functional, cell-based; conditions: dose 0-8 µM
MGC-803 [10] = assay: Inhibition of cell migration in human MGC-803 cells assessed as scratch width decrease treated at 2 to 6 micromol/L for 24 to 48 hrs measured by wound healing assay; type: functional, cell-based; conditions: dose 2-6 µmol/L, time 24-48 hrs
[11] = molecular target: T1, Lysine-specific histone demethylase 1A; assay: Inhibition of recombinant LSD1 (unknown origin) preincubated for 10 mins in presence of H3K4Me2 measured after 30 mins by measuring fluorescence intensity by fluorescence based microplate reader
MGC-803 [12] = assay: Induction of apoptosis in human MGC-803 cells assessed as early apoptotic cells at 8 micromol/L for 48 hrs by annexinV-FITC/PI staining based flow cytometric analysis (reference value: 2.92%); type: functional; conditions: dose 8 µmol/L, at 8 µM
MGC-803 [13] = assay: Induction of mitochondrial membrane potential depolarization in human MGC-803 assessed as late apoptotic cells measured at 24 micromol/L for 20 mins by JC-1 staining based flow cytometric analysis (reference value: 94.98%); type: functional; conditions: dose 24 µmol/L, at 24 µM
MGC-803 [14] = assay: Induction of apoptosis in human MGC-803 cells assessed as cell death incubated at 8 to 24 micromol/L for 48 hrs measured by Calcein-AM/PI staining analysis; type: functional, cell-based; conditions: dose 8-24 µmol/L
MGC-803 [15] = assay: Induction of apoptosis in human MGC-803 cells assessed as late apoptotic cells at 24 micromol/L for 48 hrs by annexinV-FITC/PI staining based flow cytometric analysis (reference value: 1.32%); type: functional; conditions: dose 24 µmol/L, at 24 µM
MGC-803 [16] = assay: Induction of apoptosis in human MGC-803 cells assessed as late apoptotic cells at 8 micromol/L for 48 hrs by annexinV-FITC/PI staining based flow cytometric analysis (reference value: 1.32%); type: functional; conditions: dose 8 µmol/L, at 8 µM
MGC-803 [17] = assay: Induction of mitochondrial membrane potential depolarization in human MGC-803 assessed as viable cells measured at 24 micromol/L for 20 mins by JC-1 staining based flow cytometric analysis (reference value: 0.40%); type: functional; conditions: MGC-803, 20 min, dose 24 µmol/L, read-out: Activity
HCT-116 = assay: Antiproliferative activity against human HCT-116 cells incubated for 48 hrs measured by MTT assay; type: functional, cell-based; conditions: HCT-116, 48 h
MGC-803 [18] = assay: Antiproliferative activity against human MGC-803 cells incubated for 48 hrs measured by MTT assay; type: functional, cell-based; conditions: MGC-803, 48 h
MGC-803 [19] = assay: Induction of apoptosis in human MGC-803 cells assessed as morphological change in cell nucleus incubated at 8 to 24 micromol/L for 48 hrs measured by DAPI staining analysis; type: functional, cell-based; conditions: dose 8-24 µmol/L
MGC-803 [20] = assay: Induction of apoptosis in human MGC-803 cells assessed as morphological change of cells incubated at 8 to 24 micromol/L for 48 hrs measured by bright field microscopic analysis; type: functional, cell-based; conditions: dose 8-24 µmol/L
[21] = molecular target: T1, Lysine-specific histone demethylase 1A; assay: Binding affinity to LSD1 in human MGC-803 cells assessed as thermal stability measured at 100 uM preincubated for 30 mins and incubated at 42 to 60 degreeC for 3 mins followed by cooled for 180 secs cycle repeated 3 times by CETSA based Western blotting analysis; type: cell-based; conditions: time 48.0 min
MGC-803 [22] = assay: Antiproliferative activity against human MGC-803 cells assessed as reduction in stemness of cells by measuring tumor ball diameter at 0 to 8 uM after 48 hrs using 3D-spheroid assay; type: functional, cell-based; conditions: dose 0-8 µM
MGC-803 [23] = assay: Induction of cell differentiation in human MGC-803 cells assessed as increase in CD86 level at 24 micromol/L incubated for 48 hrs by flow cytometric analysis (reference value: 60%); type: functional; conditions: dose 24 µmol/L, at 24 µM
MGC-803 [24] = assay: Induction of cell differentiation in human MGC-803 cells assessed as increase in CD86 level at 16 micromol/L incubated for 48 hrs by flow cytometric analysis (reference value: 60%); type: functional; conditions: dose 16 µmol/L, at 16 µM
MGC-803 [25] = assay: Induction of apoptosis in human MGC-803 cells assessed as late apoptotic cells at 16 micromol/L for 48 hrs by annexinV-FITC/PI staining based flow cytometric analysis (reference value: 1.32%); type: functional; conditions: dose 16 µmol/L, at 16 µM
MGC-803 [26] = assay: Induction of apoptosis in human MGC-803 cells assessed as decrease in capase3 expression at 8 to 24 micromol/L; type: functional, cell-based; conditions: dose 8-24 µmol/L
MGC-803 [27] = assay: Induction of mitochondrial membrane potential depolarization in human MGC-803 assessed as early apoptotic cells measured at 24 micromol/L for 20 mins by JC-1 staining based flow cytometric analysis (reference value: 4.52%); type: functional; conditions: dose 24 µmol/L, at 24 µM
MGC-803 [28] = assay: Induction of cell differentiation in human MGC-803 cells assessed as increase in CD86 level at 8 micromol/L incubated for 48 hrs by flow cytometric analysis (reference value: 60%); type: functional; conditions: dose 8 µmol/L, at 8 µM
MGC-803 [29] = assay: Induction of apoptosis in human MGC-803 cells assessed as viable cells at 8 micromol/L for 48 hrs by annexinV-FITC/PI staining based flow cytometric analysis (reference value: 95.54%); type: functional; conditions: MGC-803, 48 h, dose 8 µmol/L, read-out: Activity
[30] = molecular target: T1, Lysine-specific histone demethylase 1A; assay: Inhibition of LSD1 in human MGC-803 cells assessed as increase in dimethylation of H3K4; type: cell-based; conditions: dose 0-24 µmol/L
MGC-803 [31] = assay: Induction of apoptosis in human MGC-803 cells assessed as decrease in capase9 expression at 8 to 24 micromol/L; type: functional, cell-based; conditions: dose 8-24 µmol/L
MGC-803 [32] = assay: Induction of apoptosis in human MGC-803 cells assessed as necrotic cells at 8 micromol/L for 48 hrs by annexinV-FITC/PI staining based flow cytometric analysis (reference value: 0.22%); type: functional; conditions: dose 8 µmol/L, at 8 µM

- inhibition [4]: Dose-Dependent Effect
- pIC50 [11]: 7.60
- pIC50 (HCT-116): 4.79
- pIC50 (MGC-803 [18]): 4.84
- Activity [21]: Active
- inhibition [30]: Dose-Dependent Effect
SMILES: O=C(c1cccc(CN[C@@H]2C[C@H]2c2ccc(F)c(F)c2)c1)N1CCN(c2ccc(Cl)c(Cl)c2)CC1
- Activity (MGC-803 [1]): 0%
- Activity (MGC-803 [2]): Dose-Dependent Effect
- viability at 16 µM (MGC-803 [3]): 57.5%
- viability at 24 µM (MGC-803 [5]): 51.8%
- Activity (MGC-803 [6]): Active
- inhibition (MGC-803 [7]): Active
- Activity (MGC-803 [8]): 0.02%
- Activity (MGC-803 [9]): Active
- inhibition (MGC-803 [10]): Active
- Activity (MGC-803 [12]): 5.92%
- Activity (MGC-803 [13]): 69.38%
- Activity (MGC-803 [14]): Active
- Activity (MGC-803 [15]): 9.98%
- Activity (MGC-803 [16]): 2.76%
- viability at 24 µM (MGC-803 [17]): 1.28%
- Activity (MGC-803 [19]): Active
- Activity (MGC-803 [20]): Active
- Activity (MGC-803 [22]): Active
- Activity (MGC-803 [23]): 74.6%
- Activity (MGC-803 [24]): 64.32%
- Activity (MGC-803 [25]): 10.43%
- Activity (MGC-803 [26]): Active
- Activity (MGC-803 [27]): 29.22%
- Activity (MGC-803 [28]): 64.13%
- viability at 8 µM (MGC-803 [29]): 91%
- Activity (MGC-803 [31]): Active
- Activity (MGC-803 [32]): 0.32%
